Assay results as given in PubChem BioAssay (NCI).
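48-hour exposure; five concentrations; linearly interpolated endpoints. GI50 marks 50% less growth. Definition used: TGI = concentration required for complete inhibition of growth.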

What was measured:
Assay in all cases: NCI anticancer screen, dose series, 48 h
DU-145 prostate = tested on: DU-145 prostate
A549 NSCLC = tested on: A549 NSCLC
COLO 205 colon = tested on: COLO 205 colon
HCC-2998 colon = tested on: HCC-2998 colon
NCI/ADR-RES ovarian = tested on: NCI/ADR-RES ovarian
CAKI-1 renal = tested on: CAKI-1 renal
EKVX NSCLC = tested on: EKVX NSCLC
OVCAR-4 ovarian = tested on: OVCAR-4 ovarian
TK-10 renal = tested on: TK-10 renal
HOP-92 NSCLC = tested on: HOP-92 NSCLC
OVCAR-5 ovarian = tested on: OVCAR-5 ovarian
UACC-257 melanoma = tested on: UACC-257 melanoma
LOX IMVI melanoma = tested on: LOX IMVI melanoma
NCI-H460 lung = tested on: NCI-H460 lung
MOLT-4 leukemia = tested on: MOLT-4 leukemia
RPMI-8226 leukemia = tested on: RPMI-8226 leukemia
SK-OV-3 ovarian = tested on: SK-OV-3 ovarian
SK-MEL-2 melanoma = tested on: SK-MEL-2 melanoma
HCT-15 colon = tested on: HCT-15 colon
HL-60(TB) leukemia = tested on: HL-60(TB) leukemia
MALME-3M melanoma = tested on: MALME-3M melanoma
OVCAR-8 ovarian = tested on: OVCAR-8 ovarian
M14 melanoma = tested on: M14 melanoma
OVCAR-3 ovarian = tested on: OVCAR-3 ovarian
MDA-MB-231 breast = tested on: MDA-MB-231 breast
SF-268 CNS = tested on: SF-268 CNS
NCI-H23 lung = tested on: NCI-H23 lung
KM12 colon = tested on: KM12 colon
HCT-116 colon = tested on: HCT-116 colon
786-0 renal = tested on: 786-0 renal
MCF7 breast = tested on: MCF7 breast
K-562 leukemia = tested on: K-562 leukemia
U251 CNS = tested on: U251 CNS
SF-295 CNS = tested on: SF-295 CNS
CCRF-CEM leukemia = tested on: CCRF-CEM leukemia
RXF 393 renal = tested on: RXF 393 renal
SK-MEL-5 melanoma = tested on: SK-MEL-5 melanoma
SN12C renal = tested on: SN12C renal
A498 renal = tested on: A498 renal
IGROV1 ovarian = tested on: IGROV1 ovarian
UACC-62 melanoma = tested on: UACC-62 melanoma
ACHN renal = tested on: ACHN renal
SNB-75 CNS = tested on: SNB-75 CNS
SR leukemia = tested on: SR leukemia
SNB-19 CNS = tested on: SNB-19 CNS
PC-3 prostate = tested on: PC-3 prostate
NCI-H226 lung = tested on: NCI-H226 lung
SW-620 colon = tested on: SW-620 colon
BT-549 breast = tested on: BT-549 breast
MDA-MB-435 = tested on: MDA-MB-435
UO-31 renal = tested on: UO-31 renal
HS 578T breast = tested on: HS 578T breast
NCI-H522 lung = tested on: NCI-H522 lung
T-47D breast = tested on: T-47D breast
SF-539 CNS = tested on: SF-539 CNS
HOP-62 NSCLC = tested on: HOP-62 NSCLC
SK-MEL-28 melanoma = tested on: SK-MEL-28 melanoma

C[C@]12CC[C@H]3[C@@H](C[C@@H]4SC(Nc5ccccc5)=N[C@@]45CC(O)CC[C@]35C)[C@@H]1CCC2O (some centres undefined)
GI50 (DU-145 prostate): 1700 nM | TGI (DU-145 prostate): 3620 nM | GI50 (A549 NSCLC): 2410 nM | TGI (A549 NSCLC): 6020 nM | GI50 (COLO 205 colon): 2450 nM | TGI (COLO 205 colon): 5610 nM | GI50 (HCC-2998 colon): 1970 nM | TGI (HCC-2998 colon): 3560 nM | GI50 (NCI/ADR-RES ovarian): 3390 nM | TGI (NCI/ADR-RES ovarian): 91700 nM | GI50 (CAKI-1 renal): 2320 nM | TGI (CAKI-1 renal): 5680 nM | GI50 (EKVX NSCLC): 2750 nM | TGI (EKVX NSCLC): 9260 nM | GI50 (OVCAR-4 ovarian): 3130 nM | TGI (OVCAR-4 ovarian): 15400 nM | GI50 (TK-10 renal): 2910 nM | TGI (TK-10 renal): 6630 nM | GI50 (HOP-92 NSCLC): 2840 nM | TGI (HOP-92 NSCLC): 6770 nM | GI50 (OVCAR-5 ovarian): 2680 nM | TGI (OVCAR-5 ovarian): 7860 nM | GI50 (UACC-257 melanoma): 2540 nM | TGI (UACC-257 melanoma): 6680 nM | GI50 (LOX IMVI melanoma): 1330 nM | TGI (LOX IMVI melanoma): 2770 nM | GI50 (NCI-H460 lung): 1950 nM | TGI (NCI-H460 lung): 4040 nM | GI50 (MOLT-4 leukemia): 1870 nM | TGI (MOLT-4 leukemia): 8070 nM | GI50 (RPMI-8226 leukemia): 465 nM | TGI (RPMI-8226 leukemia): 2470 nM | GI50 (SK-OV-3 ovarian): 5160 nM | TGI (SK-OV-3 ovarian): 17900 nM | GI50 (SK-MEL-2 melanoma): 2510 nM | TGI (SK-MEL-2 melanoma): 5640 nM | GI50 (HCT-15 colon): 1600 nM | TGI (HCT-15 colon): 5150 nM | GI50 (HL-60(TB) leukemia): 2020 nM | TGI (HL-60(TB) leukemia): 6870 nM | GI50 (MALME-3M melanoma): 2190 nM | TGI (MALME-3M melanoma): 5890 nM | GI50 (OVCAR-8 ovarian): 3430 nM | TGI (OVCAR-8 ovarian): 14900 nM | GI50 (M14 melanoma): 1840 nM | TGI (M14 melanoma): 4270 nM | GI50 (OVCAR-3 ovarian): 1280 nM | TGI (OVCAR-3 ovarian): 2620 nM | GI50 (MDA-MB-231 breast): 1990 nM | TGI (MDA-MB-231 breast): 4630 nM | GI50 (SF-268 CNS): 1660 nM | TGI (SF-268 CNS): 3320 nM | GI50 (NCI-H23 lung): 2030 nM | TGI (NCI-H23 lung): 5040 nM | GI50 (KM12 colon): 1680 nM | TGI (KM12 colon): 3120 nM | GI50 (HCT-116 colon): 1510 nM | TGI (HCT-116 colon): 3010 nM | GI50 (786-0 renal): 1220 nM | TGI (786-0 renal): 3300 nM | GI50 (MCF7 breast): 1800 nM | TGI (MCF7 breast): 4730 nM | GI50 (K-562 leukemia): 2450 nM | TGI (K-562 leukemia): 12600 nM | GI50 (U251 CNS): 1360 nM | TGI (U251 CNS): 2790 nM | GI50 (SF-295 CNS): 1060 nM | TGI (SF-295 CNS): 2980 nM | GI50 (CCRF-CEM leukemia): 1600 nM | TGI (CCRF-CEM leukemia): 27100 nM | GI50 (RXF 393 renal): 798 nM | TGI (RXF 393 renal): 2280 nM | GI50 (SK-MEL-5 melanoma): 1820 nM | TGI (SK-MEL-5 melanoma): 3410 nM | GI50 (SN12C renal): 1650 nM | TGI (SN12C renal): 3280 nM | GI50 (A498 renal): 2160 nM | TGI (A498 renal): 5660 nM | GI50 (IGROV1 ovarian): 2780 nM | TGI (IGROV1 ovarian): 7850 nM | GI50 (UACC-62 melanoma): 1830 nM | TGI (UACC-62 melanoma): 3960 nM | GI50 (ACHN renal): 1710 nM | TGI (ACHN renal): 3250 nM | GI50 (SNB-75 CNS): 1490 nM | TGI (SNB-75 CNS): 3050 nM | GI50 (SR leukemia): 241 nM | TGI (SR leukemia): 6100 nM | GI50 (SNB-19 CNS): 1860 nM | TGI (SNB-19 CNS): 3770 nM | GI50 (PC-3 prostate): 2370 nM | TGI (PC-3 prostate): 5850 nM | GI50 (NCI-H226 lung): 2400 nM | TGI (NCI-H226 lung): 5570 nM | GI50 (SW-620 colon): 2270 nM | TGI (SW-620 colon): 5360 nM | GI50 (BT-549 breast): 1380 nM | TGI (BT-549 breast): 4310 nM | GI50 (MDA-MB-435): 2250 nM | TGI (MDA-MB-435): 7030 nM | GI50 (UO-31 renal): 1670 nM | TGI (UO-31 renal): 3050 nM | GI50 (HS 578T breast): 2160 nM | TGI (HS 578T breast): 17200 nM | GI50 (NCI-H522 lung): 1900 nM | TGI (NCI-H522 lung): 4500 nM | GI50 (T-47D breast): 2410 nM | TGI (T-47D breast): 7590 nM | GI50 (SF-539 CNS): 1190 nM | TGI (SF-539 CNS): 2620 nM | GI50 (HOP-62 NSCLC): 2470 nM | TGI (HOP-62 NSCLC): 6540 nM | GI50 (SK-MEL-28 melanoma): 1680 nM | TGI (SK-MEL-28 melanoma): 3990 nM
